# Assay results reported in the METLIN SMRT retention time set (Domingo-Almenara et al. 2019).
# Assay: gradient 5% acetonitrile 3 min, to 50% in 2 min, to 85% in 15 min, held 3 min, 100 µL/min
# Settings: column: Zorbax Extend-C18 2.1 x 50 mm; eluents: water / acetonitrile, 0.1% formic acid
# Procedure, shortened: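 Mixtures of ~100 pure standards were chromatographed on a Zorbax Extend-C18 column (2.1 × 50 mm, 1.8 μm) at 100 μL/min using water and acetonitrile, each with 0.1% formic acid. Detection used a quadrupole time-of-flight mass spectrometer in positive and negative ionization mode, and data collection spanned 3 months. Retention time was obtained from adduct peaks picked computationally and each checked manually.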
row,Structure (SMILES),RP-LC retention time
1,CCOC(=O)c1cccc(NS(=O)(=O)c2c(C)nn(-c3ccc(-c4ccccc4)nn3)c2C)c1,1070 s
2,CCc1cccc(NC(=O)c2c(O)c3cccnc3n(-c3ccccc3)c2=O)c1,1430 s
3,C[C@@H]1C/C=C/C=C/C=C/C=C/[C@H](O[C@@H]2O[C@H](C)[C@@H](O)[C@H](N)[C@@H]2O)C[C@@H]2O[C@](O)(C[C@@H](O)C[C@H]3O[C@@H]3/C=C/C(=O)O1)C[C@H](O)[C@H]2C(=O)O,686 s
4,CC(C)NC(=O)CSC1CCc2ccccc2NC1=O (stereo unspecified),661 s
5,Cc1ccc(CNC(=O)c2ccc(-c3cccs3)nc2)o1,869 s
6,CCc1nnc(-c2cc(NC(=O)c3ccc4nc[nH]c4c3)c(C)s2)o1,632 s
7,COC(=O)c1c(-c2ccccc2)noc1NCc1cccc(OC)c1,677 s
8,O=c1[nH]cc(S(=O)(=O)N2CCOCC2)c(=O)[nH]1,546 s
9,CCn1c(CCNC(=O)c2ccc(C)s2)nc2cccnc21,634 s
10,COc1cc(OC)cc(-c2nc(-c3ccc4c(c3)oc(=O)n4C)no2)c1,1060 s
11,O=C(Nc1cccn2cnnc12)c1ccc(Cl)s1,719 s
12,COc1ccc(-c2cc3nn(CC(=O)Nc4cc(C)ccc4C)c(=O)n3c(C)n2)cc1,975 s
13,Cc1noc(-c2ccc(NC(=O)c3cc(-c4ccco4)on3)cc2)n1,902 s
14,O=C(CN1C(=O)c2ccccc2C1=O)Nc1cccc(-c2cn3c(n2)SCC3)c1,581 s
15,CC1CCN(C(=O)C2CCCN(c3ncnc4c3nc3n4CCCCC3)C2)CC1 (stereo unspecified),793 s
16,Cc1nn(C(C)C(=O)NCCCN2CCc3ccccc3C2)c(=O)c2c(C)n(-c3ccccc3)nc12 (stereo unspecified),690 s
17,O=C(Nc1cccc(OCc2nnc(-c3ccc(Cl)cc3)o2)c1)c1ccccn1,1070 s
18,CCc1cccc(NC(=O)N2CCc3nc(-c4ccccc4)ncc3C2)c1,901 s
19,O=C(Nc1ccc(Br)cc1F)c1ccc(-n2ccnc2)nn1,693 s
20,O=C(Nc1ccc(Br)cc1)C1CC(=O)N(c2n[nH]c3cccc(F)c23)C1 (stereo unspecified),782 s
21,Cc1ccc2c(c1)N(S(C)(=O)=O)CCC(C(=O)NCc1ccccc1C)O2 (stereo unspecified),900 s
22,CCNC(=O)C1CCCN(c2nc3ncn(CC(=O)Nc4cccc(F)c4)c(=O)c3s2)C1 (stereo unspecified),676 s

row,Structure (SMILES),RP-LC retention time
1,Cc1ccn2c(Nc3ccccc3C)c(-c3cccc(O)c3)nc2c1,673 s
2,Cc1ccc(N2CC(c3noc(-c4ccccc4)n3)CC2=O)cc1 (stereo unspecified),819 s
3,CC(C)(C)c1ccc2c(c1)N(Cc1nc(-c3cccc(F)c3)no1)C(=O)CO2,1240 s
4,CCOc1ccccc1NC(=O)CSc1nnc(Cc2ccccc2)n1-n1cccc1,948 s
5,O=C1CCCc2nc(N3CCN(c4ncccn4)CC3)nc(Nc3ccccc3)c21,1110 s
6,Cc1ccc(N2CCC(NC(=O)c3ccc(C#N)cc3)C2=O)cc1 (stereo unspecified),798 s
7,CC(C)CC(NC(=O)C1CCC(C)CC1)C(=O)N1CCN(c2ccccn2)CC1 (stereo unspecified),693 s
8,CC(C)NC(=O)c1nccnc1NC(=O)c1ccccc1,817 s
9,COc1ccc(OC)c(S(=O)(=O)Cc2nc(-c3cccc(Br)c3)no2)c1,1030 s
10,CCc1cc(C(=O)Nc2ccc(OC)c(OC)c2)nc2cc(-c3ccco3)nn12,1030 s
11,O=C(CCCc1ccccc1)NCC1CN(c2ccc3c(c2)OCO3)C(=O)O1 (stereo unspecified),750 s
12,Fc1ccc(CN2CCN(c3cnn4c(C5CC5)nnc4c3)CC2)cc1,498 s
13,Cc1cc(C(=O)Nc2nnc(CCSc3ccccc3)o2)on1,694 s
14,Cc1cc(C)cc(NC(=O)N2CCC3(CC2)NC(=O)c2ccccc2N3C)c1,808 s
15,CCN1C(SCC(=O)N(C)c2ccccc2)=NS(=O)(=O)c2ccccc21,1000 s
16,CCc1noc(-c2ccc(SCC(=O)N3CCCCC3)nc2)n1,875 s
17,Cc1cc(C)cc(NC(=O)CN2CCC(C(=O)NCc3ccccn3)CC2)c1,548 s
18,Cc1nc2ccn(Cc3cccs3)c(=O)c2cc1C(=O)NC1CCCCC1,801 s
19,Cc1ccc(-c2nc3nc(C)cc(N4CCN(c5ccccn5)CC4)n3n2)cc1,629 s
20,Cc1oc(-c2[nH]ncc2C(=O)N2CCCCC2)cc1S(=O)(=O)N1CCC(C)CC1,809 s
21,CC(CCNC(=O)c1cc2c(-c3cccs3)nn(-c3ccccc3)c2n1C)N1CCCC1 (stereo unspecified),726 s
22,COc1ccc2sc(Nc3nnc(-c4ccc5c(c4)OCCO5)o3)nc2c1,802 s

row,Structure (SMILES),RP-LC retention time
1,COc1ccc(Cl)cc1NC(=O)CN1C(=O)CCSc2ccccc21,956 s
2,Cc1cc(N2CCN(C(=O)c3ccc(F)cc3)CC2)nc(N2CCOCC2)n1,608 s
3,Cc1ccc(-n2c(=O)c3c(cc(C)n3C)n(CC(=O)Nc3c(C)cc(C)cc3C)c2=O)cc1,626 s
4,COc1cccc(NC(=O)C2CCN(S(=O)(=O)c3cc(C(=O)N4CCOCC4)cs3)CC2)c1,747 s
5,CCn1cc(S(=O)(=O)Nc2ccc(F)cc2F)c2cccnc21,814 s
6,O=C(Nc1ccccc1)N1CCC2(CC1)N(C1CCCC1)C(=O)CS2=O (stereo unspecified),692 s
7,Fc1cccc(-c2nnc3sc(-c4ccc5ccccc5n4)nn23)c1,1180 s
8,O=C(Nc1ccccc1Cl)c1cn(CC2CCCO2)cc2c(=O)n(-c3ccccc3)nc1-2 (stereo unspecified),1050 s
9,CCOc1nc2ccccc2nc1N1CCCC(C(=O)NCC2CCCO2)C1 (stereo unspecified),934 s
10,O=C(Nc1cccc(OCc2nnc(-c3ccccc3)o2)c1)c1cccnc1,750 s
11,CCOC(=O)CNC(=O)C(c1ccccc1)n1cccc1 (stereo unspecified),784 s
12,Cn1c(=O)c(C(=O)NC2CC2)nc2ccccc21,644 s
13,Cc1ccc(-c2nc(N)n(C(=O)C3CC3)n2)cc1C,962 s
14,Cc1cc(C)cc(NC(=O)Cn2ncc3c(c2=O)N(CC2CC2)C(=O)CS3)c1,883 s
15,CCOCCOC(=O)C1=C(C)NC2=C(C(=O)CC(C)(C)C2)C1c1ccccc1OC (stereo unspecified),839 s
16,Cc1csc(-c2cc(S(=O)(=O)NCCN3CCCC3)cn2CC(=O)N2CCCCC2)n1,649 s
17,c1cc(-c2noc(-c3ccoc3)n2)cc(-c2ccn[nH]2)c1,839 s
18,CCc1nn2c(CNC(=O)c3ccc(C(F)(F)F)cc3)c(C)nc2s1,714 s
19,CC(C(=O)Nc1ccc(Cl)cc1F)C1CCN(C(=O)Nc2ccc(Cl)cc2)CC1 (stereo unspecified),1020 s
20,Cc1cc(C(=O)N2CCN(c3cccc(Cl)c3)CC2)n(-c2ccccc2)n1,1070 s
21,O=C(NC1CCCC1)N1CCN(c2nc3ccccc3n(Cc3ccccc3)c2=O)CC1,997 s
22,CCCS(=O)(=O)N1CCc2c(c(CN(C(=O)c3ccccc3)c3ccccc3)nn2C)C1,833 s
